Laboratory results reported in paper PMC5015106 (Scientific Reports, 2016).
pIC50: −log10 of the molar value. Converted amounts (≈) assume the structure as drawn. Read-outs that look alike come from different tables or passages of the source. Numbered stars: 1 amine (or outer) side, 2 acyl side, 3 side chain; on linkers, the order of the positions; unused ones are H or OH. Bridge positions count the residues as written; N and C are the ends. Square brackets hold non-standard residues; d marks the D form. Peptide text beside a SMILES is read from it. ξ: configuration not given here. X1 = O=C([C@H](CCc1ccc(O)c(Cl)c1)N[*:1])[*:2]; NMehTyr = CN[C@@H](CCc1ccc(O)cc1)C(=O)O; Nle(6-Ph) = N[C@@H](CCCCc1ccccc1)C(=O)O; d(aIle) = CC[C@H](C)[C@@H](N)C(=O)O; hTyr = N[C@@H](CCc1ccc(O)cc1)C(=O)O; hhPhe = N[C@@H](CCCc1ccccc1)C(=O)O; aIle = CC[C@@H](C)[C@H](N)C(=O)O; hPhe = N[C@@H](CCc1ccccc1)C(=O)O; Ile(3ξ) = CCC(C)[C@H](N)C(=O)O; NMeN = CN[C@@H](CC(N)=O)C(=O)O; NMeS = CN[C@@H](CO)C(=O)O; NMeA = CN[C@@H](C)C(=O)O; CO = O=C([*:1])[*:2]; Sar = CNCC(=O)O

Tests used:
TAFIa = biological target: T1, TAFIa (Homo sapiens, UniProt Q96IY4); test: biochemical; details: for IC50: enzymatic inhibition assay, duplicate determination, read-out: IC50 in nM against TAFIa
T1 construct: purchased American Diagnostica Pr; No. 874
T1 sequence (Q96IY4 115-423): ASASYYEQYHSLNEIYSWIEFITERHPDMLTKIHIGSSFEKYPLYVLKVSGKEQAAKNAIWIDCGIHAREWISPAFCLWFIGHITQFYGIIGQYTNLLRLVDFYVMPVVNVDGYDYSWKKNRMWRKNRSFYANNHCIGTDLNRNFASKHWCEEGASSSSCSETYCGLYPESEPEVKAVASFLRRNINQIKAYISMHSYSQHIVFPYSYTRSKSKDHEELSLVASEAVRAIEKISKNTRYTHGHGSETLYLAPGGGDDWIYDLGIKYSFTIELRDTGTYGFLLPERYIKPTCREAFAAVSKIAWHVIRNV

carboxypeptidase A = details: cited from earlier work; for inhibitory concentrations carboxypeptidase A: in words

Row | Compound | IC50 (TAFIa) | other results
1 | CC[C@@H](C)C1NC(=O)[C@H](NC(=O)N[C@@H](Cc2ccccc2)C(=O)O)CCCCNC(=O)[C@H](CCc2ccccc2)NC(=O)CN(C)C(=O)[C@H](CCc2ccc(O)c(Cl)c2)NC1=O (some centres unmarked) [Compound 9, Anabaenopeptin SA9] | 31000 nM | 
2 | CCC(C)[C@@H]1NC(=O)[C@H](NC(=O)N[C@@H](CCCCN)C(=O)O)CCCCNC(=O)[C@H](Cc2ccccc2)NC(=O)[C@H](CC(N)=O)N(C)C(=O)[C@H](CCCc2ccccc2)NC1=O (some centres unmarked) [Compound 4, Anabaenopeptin SA4] ({Lys-CO}-[dK][Ile(3ξ)][hhPhe][NMeN]F; lactam 1-C) |  | pIC50 (TAFIa): 8.47
3 | Anabaenopeptin SA7 [Compound 7] | 13000 nM | 
4 | CC[C@H](C)[C@@H]1NC(=O)[C@H](NC(=O)N[C@@H](Cc2ccc(O)cc2)C(=O)O)CCCCNC(=O)[C@H]([C@@H](C)CC)NC(=O)[C@H](CCc2ccc(O)cc2)N(C)C(=O)[C@H](CCc2ccc(O)cc2)NC1=O [anabaenopeptin G] ({Tyr-CO}-[dK]I[hTyr][NMehTyr]I; lactam 1-C) |  | inhibitory concentrations carboxypeptidase A (carboxypeptidase A): nanomolar
5 | CC[C@H](C)[C@H]1NC(=O)[C@H](NC(=O)N[C@@H](CCCCN)C(=O)O)CCCCNC(=O)[C@H](Cc2ccccc2)NC(=O)[C@H](C)N(C)C(=O)[C@H](CCc2ccc(O)cc2)NC1=O [Compound 17, Anabaenopeptin SA3] ({Lys-CO}-[dK][d(aIle)][hTyr][NMeA]F; lactam 1-C) | 2.1 nM | 
6 | CC[C@@H](C)[C@H](NC(=O)N[C@@H]1CCCCNC(=O)[C@H](Cc2ccccc2)NC(=O)[C@H](CC(N)=O)N(C)C(=O)[C@H](CCCCc2ccccc2)NC(=O)[C@@H]([C@@H](C)CC)NC1=O)C(=O)O [Compound 8, Anabaenopeptin SA8] ({aIle-CO}-[dK][d(aIle)][Nle(6-Ph)][NMeN]F; lactam 1-C) | 4800 nM | 
7 | CC(C)[C@H]1NC(=O)[C@H](NC(=O)N[C@@H](Cc2ccc(O)cc2)C(=O)O)CCCCNC(=O)[C@H](Cc2ccccc2)NC(=O)[C@H](CO)N(C)C(=O)[C@H](CCc2ccc(O)cc2)NC1=O [Compound 20, Anabaenopeptin SA13] ({Tyr-CO}-[dK][dV][hTyr][NMeS]F; lactam 1-C) | 2500 nM | 
8 | CC[C@H](C)[C@H](NC(=O)N[C@@H]1CCCCNC(=O)[C@H](Cc2ccccc2)NC(=O)[C@H](C)N(C)C(=O)[C@H](CCc2ccc(O)cc2)NC(=O)[C@H](C(C)C)NC1=O)C(=O)O [anabaenopeptin J] ({Ile-CO}-[dK]V[hTyr][NMeA]F; lactam 1-C) |  | inhibitory concentrations carboxypeptidase A (carboxypeptidase A): nanomolar
9 | CC[C@H](C)[C@@H]1NC(=O)[C@H](CCc2ccc(O)cc2)N(C)C(=O)[C@H](CCc2ccc(O)cc2)NC(=O)[C@H](C(C)C)NC(=O)[C@H](NC(=O)N[C@@H](Cc2ccc(O)cc2)C(=O)O)CCCCNC1=O [Compound 15, Anabaenopeptine 915] ({Tyr-CO}-[dK]V[hTyr][NMehTyr]I; lactam 1-C) |  | pIC50 (TAFIa): 6.28
10 | CC[C@H](C)[C@@H]1NC(=O)[C@H](NC(=O)N[C@@H](CCCNC(=N)N)C(=O)O)CCCCNC(=O)[C@H]([C@@H](C)CC)NC(=O)[C@H](CCc2ccc(O)cc2)N(C)C(=O)[C@H](CCc2ccc(O)cc2)NC1=O [anabaenopeptin H] ({Arg-CO}-[dK]I[hTyr][NMehTyr]I; lactam 1-C) |  | IC50 carboxypeptidase A (carboxypeptidase A): 3.4 µg/mL (≈ 3.68 µM)
11 | Anabaenopeptin SA1 [Compound 5] | 2.2 nM | 
12 | CC[C@H](C)[C@@H]1NC(=O)[C@H](CCc2ccc(O)cc2)N(C)C(=O)[C@H](CCc2ccc(O)cc2)NC(=O)[C@H](C(C)C)NC(=O)[C@H](NC(=O)N[C@@H](CCCNC(=N)N)C(=O)O)CCCCNC1=O [Compound 16, Anabaenopeptin 908] ({Arg-CO}-[dK]V[hTyr][NMehTyr]I; lactam 1-C) |  | pIC50 (TAFIa): 8.74
13 | CC(C)[C@H]1NC(=O)[C@H](NC(=O)N[C@@H](Cc2ccccc2)C(=O)O)CCCCNC(=O)[C@H](CCc2ccc(O)c(Cl)c2)NC(=O)CN(C)C(=O)[C@H](CCc2ccc(O)cc2)NC1=O [Compound 10, Anabaenopeptin SA10] ({Phe-CO}-[dK][dV][hTyr][Sar][X1]; lactam 1-C) | 7000 nM | 
14 | CC[C@@H](C)[C@H](NC(=O)N[C@@H]1CCCCNC(=O)[C@H](Cc2ccccc2)NC(=O)[C@H](CC(N)=O)N(C)C(=O)[C@H](CCc2ccccc2)NC(=O)[C@H]([C@H](C)CC)NC1=O)C(=O)O [Compound 18, Anabaenopeptin SA6] ({aIle-CO}-[dK][aIle][hPhe][NMeN]F; lactam 1-C) | 51000 nM | 
15 | CC[C@H](C)[C@H](NC(=O)N[C@@H]1CCCCNC(=O)[C@H](CC(C)C)NC(=O)[C@H](C)N(C)C(=O)[C@H](CCc2ccc(O)cc2)NC(=O)[C@H](C(C)C)NC1=O)C(=O)O [anabaenopeptin I] ({Ile-CO}-[dK]V[hTyr][NMeA]L; lactam 1-C) |  | inhibitory concentrations carboxypeptidase A (carboxypeptidase A): nanomolar
16 | Anabaenopeptin SA12 [Compound 12] | 4300 nM | 
17 | CC(C)[C@H]1NC(=O)[C@H](NC(=O)N[C@@H](CCCN=C(N)N)C(=O)O)CCCCNC(=O)[C@H](Cc2ccccc2)NC(=O)[C@H](CO)N(C)C(=O)[C@H](CCc2ccc(O)cc2)NC1=O [Compound 19, Anabaenopeptin SA2] ({Arg-CO}-[dK][dV][hTyr][NMeS]F; lactam 1-C) | 16 nM | 
18 | Anabaenopeptin SA5 [Compound 6] | 790 nM | 
19 | CC[C@@H](C)C1NC(=O)[C@H](NC(=O)N[C@@H](Cc2ccccc2)C(=O)O)CCCCNC(=O)[C@H](CCc2ccc(O)c(Cl)c2)NC(=O)CN(C)C(=O)[C@H](CCc2ccc(O)cc2)NC1=O (some centres unmarked) [Compound 11, Anabaenopeptin SA11] | 15000 nM | 
20 | CC(C)[C@@H]1NC(=O)[C@H](NC(=O)N[C@@H](Cc2ccc(O)cc2)C(=O)O)CCCCNC(=O)[C@H](Cc2ccccc2)NC(=O)[C@H](C)N(C)C(=O)[C@H](CCc2ccc(O)cc2)NC1=O [Compound 13, Anabaenopeptin A] ({Tyr-CO}-[dK]V[hTyr][NMeA]F; lactam 1-C) | 440 nM | 
